PubChem BioAssay AID248 (DTP/NCI, 2004)
Inconclusive results and toxic doses are left out. No stated cut-off is given here; in the data, active means T/C of 150% or more; inactive means T/C below 125%.

Tested on: L1210 leukemia ip in BDF1 mice, survival T/C
Test: NCI In Vivo Anticancer Drug Screen. Data for tumor model L1210 Leukemia (intraperitoneal) in B6D2F1 (BDF1) mice
Details: endpoint: mean survival time, higher = longer survival
In short: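 Tumor was transplanted into mice, which were then dosed with test compound or vehicle alone. Survival was recorded for each group, and the treated figure was expressed relative to the control figure.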

[1] = dose: 50.0 mg/kg/injection, schedule: Q01DX001 (ip), vehicle: saline
[2] = dose: 100.0 mg/kg/injection, schedule: Q01DX001 (ip), vehicle: saline
[3] = dose: 200.0 mg/kg/injection, schedule: Q01DX001 (ip), vehicle: saline
[4] = dose: 400.0 mg/kg/injection, schedule: Q01DX001 (ip), vehicle: saline
[5] = dose: 100.0 mg/kg/injection, schedule: Q04DX003 (ip), vehicle: Klucel (hydroxypropylcellulose) (HPC)
[6] = dose: 200.0 mg/kg/injection, schedule: Q04DX003 (ip), vehicle: Klucel (hydroxypropylcellulose) (HPC)
[7] = dose: 400.0 mg/kg/injection, schedule: Q04DX003 (ip), vehicle: Klucel (hydroxypropylcellulose) (HPC)
[8] = dose: 100.0 mg/kg/injection, schedule: Q01DX001 (ip), vehicle: carboxymethylcellulose (CMC)
[9] = dose: 400.0 mg/kg/injection, schedule: Q01DX001 (ip), vehicle: carboxymethylcellulose (CMC)
[10] = dose: 100.0 mg/kg/injection, schedule: Q01DX009 (ip), vehicle: saline with Tween-80
[11] = dose: 200.0 mg/kg/injection, schedule: Q01DX009 (ip), vehicle: saline with Tween-80
[12] = dose: 100.0 mg/kg/injection, schedule: Q01DX009 (ip), vehicle: Klucel (hydroxypropylcellulose) (HPC)
[13] = dose: 200.0 mg/kg/injection, schedule: Q01DX009 (ip), vehicle: Klucel (hydroxypropylcellulose) (HPC)
[14] = dose: 400.0 mg/kg/injection, schedule: Q01DX009 (ip), vehicle: Klucel (hydroxypropylcellulose) (HPC)
[15] = dose: 100.0 mg/kg/injection, schedule: Q04DX003 (ip), vehicle: saline
[16] = dose: 200.0 mg/kg/injection, schedule: Q04DX003 (ip), vehicle: saline
[17] = dose: 400.0 mg/kg/injection, schedule: Q04DX003 (ip), vehicle: saline
[18] = dose: 25.0 mg/kg/injection, schedule: Q04DX003 (ip), vehicle: saline
[19] = dose: 50.0 mg/kg/injection, schedule: Q04DX003 (ip), vehicle: saline

Measured: T/C

CSCc1ccccn1
inactive: [1] 106 % of control | [2] 101 % of control | [3] 93 % of control | [4] 104 % of control

N/C(=N/N=C/c1ccccc1)N/N=C\c1ccccc1
inactive: dose: 15.0 mg/kg/injection, schedule: Q01DX Z (oral), vehicle: saline 95 % of control | dose: 30.0 mg/kg/injection, schedule: Q01DX Z (oral), vehicle: saline 95 % of control | dose: 60.0 mg/kg/injection, schedule: Q01DX Z (oral), vehicle: saline 91 % of control | dose: 120.0 mg/kg/injection, schedule: Q01DX Z (oral), vehicle: saline 95 % of control

Brc1ccc(N=N/C(=N/Nc2ccccc2)c2ccc(/C=N/Nc3ccccc3)cc2)cc1
inactive: [1] 95 % of control | [2] 101 % of control | [3] 95 % of control | [4] 91 % of control

COc1ccc(C(CC(=O)c2ccccc2)SCCN2CCOCC2)cc1 (stereo unspecified)
inactive: dose: 100.0 mg/kg/injection, schedule: Q04DX003 (ip), vehicle: saline with Tween-80 95 % of control | dose: 200.0 mg/kg/injection, schedule: Q04DX003 (ip), vehicle: saline with Tween-80 99 % of control

O=C1c2sccc2-c2cccc3cccc1c23 (tested in a mixture with another compound)
inactive: [5] 96 % of control | [6] 102 % of control | [7] 106 % of control

Oc1cccc2cccnc12
inactive: [8] 100 % of control | [9] 96 % of control

O=c1cc([N+](=O)[O-])n(O)cc1[N+](=O)[O-]
inactive: [2] 102 % of control | [3] 108 % of control | [4] 102 % of control

COc1ccc2c(c1)sc(=N)n2C
inactive: dose: 100.0 mg/kg/injection, schedule: Q04DX002 (ip), vehicle: saline 97 % of control | dose: 200.0 mg/kg/injection, schedule: Q04DX002 (ip), vehicle: saline 93 % of control

C[Si](C)(C)Oc1cc(N=NNC2=CC(=O)c3ccccc3C2=O)c(O)c2ccccc12
inactive: dose: 12.5 mg/kg/injection, schedule: Q04DX003 (ip), vehicle: saline with Tween-80 93 % of control | dose: 25.0 mg/kg/injection, schedule: Q04DX003 (ip), vehicle: saline with Tween-80 93 % of control | dose: 50.0 mg/kg/injection, schedule: Q04DX003 (ip), vehicle: saline with Tween-80 94 % of control | dose: 400.0 mg/kg/injection, schedule: Q04DX003 (ip), vehicle: saline with Tween-80 97 % of control

COc1cc2c3c(c4cc(OC)c(OC)cc4c2cc1OC)CN1CCC[C@H]1C3
inactive: dose: 4.0 mg/kg/injection, schedule: Q01DX015 (ip), vehicle: water 100 % of control | dose: 6.0 mg/kg/injection, schedule: Q01DX015 (ip), vehicle: water 100 % of control | dose: 6.25 mg/kg/injection, schedule: Q01DX015 (ip), vehicle: water 112 % of control | dose: 8.0 mg/kg/injection, schedule: Q01DX Z (ip), vehicle: water 107 % of control | dose: 9.0 mg/kg/injection, schedule: Q01DX015 (ip), vehicle: water 112 % of control | dose: 12.0 mg/kg/injection, schedule: Q01DX Z (ip), vehicle: water 100 % of control | dose: 14.0 mg/kg/injection, schedule: Q01DX015 (ip), vehicle: water 117 % of control | dose: 15.0 mg/kg/injection, schedule: Q02DX Z (ip), vehicle: water 108 % of control | dose: 25.0 mg/kg/injection, schedule: Q01DX015 (ip), vehicle: water 98 % of control
active: dose: 30.0 mg/kg/injection, schedule: Q02DX Z (ip), vehicle: water 150 % of control | dose: 250.0 mg/kg/injection, schedule: Q01DX Z (ip), vehicle: saline 154 % of control

Nc1cc(N)c([N+](=O)[O-])cc1[N+](=O)[O-]
inactive: [10] 98 % of control | [11] 93 % of control | dose: 400.0 mg/kg/injection, schedule: Q01DX009 (ip), vehicle: saline with Tween-80 98 % of control

CC1=NN(c2cccc([N+](=O)[O-])c2)C(=O)C1
inactive: dose: 100.0 mg/kg/injection, schedule: Q01DX001 (ip), vehicle: saline with Tween-80 96 % of control | dose: 200.0 mg/kg/injection, schedule: Q01DX001 (ip), vehicle: saline with Tween-80 96 % of control | dose: 400.0 mg/kg/injection, schedule: Q01DX001 (ip), vehicle: saline with Tween-80 98 % of control

Cc1ccccc1/C(=C/c1ccc([N+](=O)[O-])cc1)C(=O)O
inactive: [12] 95 % of control | [13] 108 % of control | [14] 104 % of control

O=c1c2ccccc2c2ccccc2n1C(c1ccccc1)c1ccccc1
inactive: [5] 98 % of control | [6] 88 % of control | [7] 88 % of control

O=[N+]([O-])c1cccc(/C=[N+](\[O-])c2ccccc2)c1
inactive: [1] 100 % of control | [2] 96 % of control | [3] 100 % of control | [4] 102 % of control

O=C(CCCCOc1ccc([N+](=O)[O-])cc1Cl)Nc1ccc(S(=O)(=O)F)cc1
inactive: [5] 97 % of control | [6] 90 % of control | [7] 90 % of control

C=CCc1ccc(OC(=O)Nc2ccc(Cl)cc2)c(OC)c1
inactive: dose: 100.0 mg/kg/injection, schedule: Q04DX002 (ip), vehicle: Klucel (hydroxypropylcellulose) (HPC) 115 % of control | dose: 200.0 mg/kg/injection, schedule: Q04DX002 (ip), vehicle: Klucel (hydroxypropylcellulose) (HPC) 107 % of control | dose: 400.0 mg/kg/injection, schedule: Q04DX002 (ip), vehicle: Klucel (hydroxypropylcellulose) (HPC) 100 % of control

Nc1cccc2ncccc12
inactive: [15] 104 % of control | [16] 101 % of control | [17] 103 % of control

COc1ccc(OC)c(C2N(Cc3ccc(N(C)C)cc3)CCCN2Cc2ccc(N(C)C)cc2)c1
inactive: dose: 50.0 mg/kg/injection, schedule: Q01DX009 (ip), vehicle: saline with Tween-80 93 % of control | [10] 93 % of control | [11] 90 % of control

CCOC(=O)CNS(=O)(=O)CCN1C(=O)c2ccccc2C1=O
inactive: dose: 50.0 mg/kg/injection, schedule: Q04DX003 (ip), vehicle: Klucel (hydroxypropylcellulose) (HPC) 98 % of control | [5] 100 % of control | [6] 98 % of control

O=C(O)C1C(=O)Oc2c(cccc2[N+](=O)[O-])C1O (stereo unspecified)
inactive: [8] 94 % of control | dose: 200.0 mg/kg/injection, schedule: Q01DX001 (ip), vehicle: carboxymethylcellulose (CMC) 92 % of control | [9] 92 % of control

N=c1ccc2nc3ccc(N)cc3sc-2c1
inactive: dose: 6.25 mg/kg/injection, schedule: Q01DX009 (ip), vehicle: saline 104 % of control | dose: 6.25 mg/kg/injection, schedule: Q04DX003 (ip), vehicle: saline 100 % of control | dose: 12.5 mg/kg/injection, schedule: Q01DX009 (ip), vehicle: saline 106 % of control | dose: 12.5 mg/kg/injection, schedule: Q04DX003 (ip), vehicle: saline 96 % of control | dose: 25.0 mg/kg/injection, schedule: Q01DX009 (ip), vehicle: saline 112 % of control | [18] 107 % of control | dose: 50.0 mg/kg/injection, schedule: Q01DX009 (ip), vehicle: saline 98 % of control | [19] 105 % of control | [15] 105 % of control

CC(=O)OCC1OC(n2c(O)c(/C=C3\C=Nc4ccccc43)sc2=S)C(OC(C)=O)C(OC(C)=O)C1OC(C)=O (stereo unspecified)
inactive: dose: 12.5 mg/kg/injection, schedule: Q01DX005 (ip), vehicle: other 94 % of control | dose: 25.0 mg/kg/injection, schedule: Q01DX005 (ip), vehicle: other 91 % of control | dose: 50.0 mg/kg/injection, schedule: Q01DX005 (ip), vehicle: other 92 % of control | dose: 100.0 mg/kg/injection, schedule: Q01DX005 (ip), vehicle: other 111 % of control | dose: 200.0 mg/kg/injection, schedule: Q01DX005 (ip), vehicle: other 94 % of control

Cc1cc(C)cc(OCC2CNC(=O)O2)c1 (stereo unspecified)
inactive: dose: 25.0 mg/kg/injection, schedule: Q01DX009 (ip), vehicle: Klucel (hydroxypropylcellulose) (HPC) 101 % of control | [18] 90 % of control | dose: 50.0 mg/kg/injection, schedule: Q01DX009 (ip), vehicle: Klucel (hydroxypropylcellulose) (HPC) 114 % of control | [19] 92 % of control | [12] 100 % of control | [13] 100 % of control | [16] 90 % of control | [14] 103 % of control | [17] 113 % of control
